Measured values from patent US10071984B2, “Histone demethylase inhibitors” (Celgene Quanticel Research, Inc., priority 2014, dated 2018).
pIC50: −log10 of the molar value.

Experiments:
PHF8 = PHF8 (Homo sapiens (Human), UniProt Q9UPP1); test: PHF8 in vitro enzyme inhibition assay (TR-FRET); format: biochemical; conditions: 3 nM PHF8, H3K9me1-biotin peptide
Description: (§1) This assay determines the ability of a test compound to inhibit FBXL11, FBXL10, and PHF8 demethylase activity. Baculovirus expressed FBXL11 (GenBank Accession #NM_012308, AA1-1162) was purchased from BPS Bioscience (Cat#50102). Baculovirus expressed FBXL10 (GenBank Accession #NM_032590, AA 1-650) was purchased from BPS Bioscience (Cat #50120). Baculovirus expressed PHF8 (GenBank Accession NP_055922.1) was purchased from Active Motif (Cat#31435).
The ability of test compounds to inhibit the activity of PHF8 was determined in 384-well plate format under the following reaction conditions: 3 nM PHF8, 200 nM H3K9me1-biotin labeled peptide (Anaspec cat #64358), 0.5 μM alpha-ketoglutaric acid in assay buffer of 50 mM HEPES, pH7.3, 0.005% Brij35, 0.5 mM TCEP, 0.2 mg/ml BSA, 50 μM sodium L-ascorbate, and 5 μM ammonium iron(II) sulfate. Reaction product was determined quantitatively by TR-FRET after the addition of detection reagent Phycolink Streptavidin-allophycocyanin (Prozyme) and Europium-anti-unmodified-histone H3 lysine 9/lysine27 (H3K9/K27) antibody (PerkinElmer) in the presence of 5 mM EDTA in LANCE detection buffer (PerkinElmer) at a final concentration of 25 nM and 0.5 nM, respectively.
The assay reaction was initiated by the following: 2 μl of the mixture of 600 nM H3K9me1-biotin labeled peptide and 1.5 μM alpha-ketoglutaric acid with 2 μl of 11-point serial diluted inhibitor in 3% DMSO were added to each well of the plate, followed by the addition of 2 μl of 9 nM PHF8 to initiate the reaction. The reaction mixture was incubated at room temperature for 15 minutes, and terminated by the addition of 6 μl of 5 mM EDTA in LANCE detection buffer containing 50 nM Phycolink Streptavidin-allophycocyanin and 1 nM Europium-anti-unmodified H3K9/K27 antibody. Plates were read by EnVision Multilabel Reader in TR-FRET mode (excitation at 320 nm, emission at 615 nm and 665 nm) after 1 hour incubation at room temperature. A ratio was calculated (665/615) for each well and fitted to determine inhibition constant (IC50).
(§2) The ability of the compounds disclosed herein to inhibit demethylase activity was quantified and the respective IC50 value was determined.

FBXL10 = FBXL10 (Homo sapiens (Human), UniProt Q8NHM5); test: FBXL10 in vitro enzyme inhibition assay (AlphaScreen); format: biochemical; conditions: 0.3 nM FBXL10, H3K36me2-biotin peptide
Description: as §1
The ability of test compounds to inhibit the activity of FBXL10 was determined in 384-well plate format under the following reaction conditions: 0.3 nM FBXL10, 30 nM H3K36me2-biotin labeled peptide (Anaspec cat #64442), 0.2 μM alpha-ketoglutaric acid in assay buffer of 50 mM HEPES, pH7.3, 0.005% Brij35, 0.5 mM TCEP, 0.2 mg/ml BSA, 50 μM sodium L-ascorbate, 5 μM ammonium iron(II) sulfate. Reaction product is determined quantitatively by AlphaScreen detection after the addition of detection reagents anti-H3K36me1 antibody, AlphaScreen® Streptavidin-coated Donor beads, and AlphaScreen® Protein A Acceptor beads in 50 mM HEPES, pH7.3, 10 mM NaCl, 0.005% Brij35, 5 mM EDTA, 2 mg/ml BSA to final 10 μg/ml beads.
The assay reaction was initiated by the following: 3 μl of the mixture of 90 nM H3K36me2-biotin labeled peptide and 0.6 μM alpha-ketoglutaric acid with 3 μl of 11-point serial diluted inhibitor in 3% DMSO are added to each well of 384 well Proxiplate (Perkin Elmer), followed by the addition of 3 μl of 0.9 nM FBXL10 to initiate the reaction. The reaction mixture is incubated at room temperature for 1 hour, and terminated by the addition of 3 μl of appropriate dilution of anti H3K36me1 antibody in 50 mM HEPES, pH7.3, 10 mM NaCl, 0.005% Brij35, 5 mM EDTA, 2 mg/ml BSA. Plates will then incubated at room temperature for 40 minutes, followed by addition of 3 ul of 50 μg/ml AlphaScreen® Streptavidin-coated Donor beads and AlphaScreen® Protein A Acceptor beads in 50 mM HEPES, pH7.3, 10 mM NaCl, 0.005% Brij35, 5 mM EDTA, 2 mg/ml BSA. Plates will then be read by EnVision Multilabel Reader in AlphaScreen mode after minimum 2 hour incubation at room temperature. The AlphaScreen signal for each well is used to determine inhibition constant (IC50).
as §2

Chain of PHF8 (Q9UPP1 37-1060): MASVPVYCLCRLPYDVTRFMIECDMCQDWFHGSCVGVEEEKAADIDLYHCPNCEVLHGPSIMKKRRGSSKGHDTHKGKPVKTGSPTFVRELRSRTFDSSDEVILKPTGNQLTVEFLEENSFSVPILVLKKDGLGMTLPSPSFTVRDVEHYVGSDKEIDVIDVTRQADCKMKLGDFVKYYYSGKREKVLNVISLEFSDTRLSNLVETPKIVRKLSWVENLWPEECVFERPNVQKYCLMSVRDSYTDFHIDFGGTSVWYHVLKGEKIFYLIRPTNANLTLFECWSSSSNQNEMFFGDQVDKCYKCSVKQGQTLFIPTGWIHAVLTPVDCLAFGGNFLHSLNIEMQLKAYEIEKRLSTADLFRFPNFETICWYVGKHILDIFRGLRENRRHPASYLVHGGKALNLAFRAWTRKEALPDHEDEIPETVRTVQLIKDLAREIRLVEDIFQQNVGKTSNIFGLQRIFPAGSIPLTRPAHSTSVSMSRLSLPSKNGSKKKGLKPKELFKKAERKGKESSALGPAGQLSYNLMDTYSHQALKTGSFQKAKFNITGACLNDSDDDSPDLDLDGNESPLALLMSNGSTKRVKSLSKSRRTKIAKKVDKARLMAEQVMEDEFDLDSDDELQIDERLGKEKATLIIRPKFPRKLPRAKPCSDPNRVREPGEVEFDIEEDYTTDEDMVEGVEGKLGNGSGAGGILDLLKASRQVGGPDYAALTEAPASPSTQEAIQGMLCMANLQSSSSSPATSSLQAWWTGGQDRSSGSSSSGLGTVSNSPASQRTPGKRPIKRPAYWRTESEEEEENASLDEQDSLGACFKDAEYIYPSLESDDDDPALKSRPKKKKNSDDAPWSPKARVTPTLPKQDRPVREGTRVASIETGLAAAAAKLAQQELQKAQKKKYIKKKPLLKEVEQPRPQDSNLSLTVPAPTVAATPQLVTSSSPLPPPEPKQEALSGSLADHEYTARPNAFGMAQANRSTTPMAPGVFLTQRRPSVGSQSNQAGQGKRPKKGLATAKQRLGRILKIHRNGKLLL
Chain of FBXL10 (Q8NHM5 1-650): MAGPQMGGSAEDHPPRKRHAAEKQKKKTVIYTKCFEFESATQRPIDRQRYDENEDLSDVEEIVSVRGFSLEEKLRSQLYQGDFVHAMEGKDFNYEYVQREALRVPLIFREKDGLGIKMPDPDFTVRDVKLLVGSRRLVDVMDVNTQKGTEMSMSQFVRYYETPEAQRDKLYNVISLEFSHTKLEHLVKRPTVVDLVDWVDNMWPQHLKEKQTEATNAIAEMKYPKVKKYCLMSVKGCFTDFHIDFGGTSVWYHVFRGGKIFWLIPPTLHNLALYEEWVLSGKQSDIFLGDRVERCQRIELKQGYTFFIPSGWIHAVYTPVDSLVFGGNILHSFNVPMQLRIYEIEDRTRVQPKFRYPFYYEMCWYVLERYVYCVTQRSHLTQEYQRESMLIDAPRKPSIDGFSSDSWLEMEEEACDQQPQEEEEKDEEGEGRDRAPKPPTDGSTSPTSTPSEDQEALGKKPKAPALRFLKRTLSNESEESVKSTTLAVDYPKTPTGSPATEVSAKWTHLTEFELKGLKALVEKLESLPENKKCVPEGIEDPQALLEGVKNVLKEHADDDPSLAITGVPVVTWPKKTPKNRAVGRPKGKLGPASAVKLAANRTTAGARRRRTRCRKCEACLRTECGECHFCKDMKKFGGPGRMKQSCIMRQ

| SMILES | pIC50 (PHF8) | pIC50 (FBXL10) |
| --- | --- | --- |
| Fc1c(Cn2cnc(-c3cc(-c4c[nH]nn4)ccn3)c2)cccc1OC(F)(F)F [Example 26, 2-[1-[[2-fluoro-3-(trifluoromethoxy)phenyl]methyl]imidazol-44-yl]-4-(1H-triazol-4-yl)pyridine] | 5.00 to 6.00 |  |
| N#Cc1[nH]nnc1-c1ccnc(-c2cn(Cc3cccc(Cl)c3Cl)cn2)c1 [Example 14, 4-[2-[1-[(2,3-dichlorophenyl)methyl]imidazol-4-yl]pyridin-4-yl]-1H-triazole-5-carbonitrile] | 5.00 to 6.00 | ≥ 7.00 |
| c1ccc(OCC2CC2)c(CCn2cnc(-c3cc(-c4c[nH]nn4)ccn3)c2)c1 [Example 11, 2-[1-[2-[2-(cyclopropylmethoxy)phenyl]ethyl]imidazol-4-yl]-4-(1H-triazol-4-yl)pyridine] | 6.00 to 7.00 | ≥ 7.00 |
| FC(F)(F)COc1ccccc1CCn1cnc(-c2cc(-c3c[nH]nn3)ccn2)c1 [Example 10, 4-(1H-triazol-4-yl)-2-[1-[2-[2-(2,2,2-trifluoroethoxy)phenyl]ethyl]imidazol-4-yl]pyridine] | 6.00 to 7.00 | ≥ 7.00 |
| N#Cc1[nH]nnc1-c1ccnc(-c2cn(CC3CCCc4ccccc43)cn2)c1 (stereo not shown) [Example 15, 4-[2-[1-(1,2,3,4-tetrahydronaphthalen-1-ylmethyl)imidazol-4-yl]pyridin-4-yl]-1H-triazole-5-carbonitrile] | 6.00 to 7.00 | ≥ 7.00 |
| c1ccc(Oc2ccccc2CCn2cnc(-c3cc(-c4c[nH]nn4)ccn3)c2)cc1 [Example 18, 2-[1-[2-(2-phenoxyphenyl)ethyl]imidazol-4-yl]-4-(1H-triazol-4-yl)pyridine] | 5.00 to 6.00 | ≥ 7.00 |
| Fc1[nH]nnc1-c1ccnc(-c2cn(Cc3cccc(Cl)c3Cl)cn2)c1 [Example 20, 2-[1-[(2,3-dichlorophenyl)methyl]imidazol-4-yl]-4-(5-fluoro-1H-triazol-4-yl)pyridine] | 6.00 to 7.00 | ≥ 7.00 |
| Cc1cccc(Cn2cnc(-c3cc(-c4c[nH]nn4)ccn3)c2)c1F [Example 28, 2-[1-[(2-fluoro-3-methylphenyl)methyl]imidazol-4-yl]-4-(1H-triazol-4-yl)pyridin] | 6.00 to 7.00 | ≥ 7.00 |
| c1ccc(-c2ccccc2CCn2cnc(-c3cc(-c4c[nH]nn4)ccn3)c2)cc1 [Example 27, 2-[1-[2-(2-phenylphenyl)ethyl]imidazol-4-yl]-4-(1H-triazol-4-yl)pyridine] | 5.00 to 6.00 |  |

Now from value to molecule:

| pIC50 (PHF8) | pIC50 (FBXL10) | SMILES |
| --- | --- | --- |
| < 5.00 | ≥ 7.00 | Cn1cnc(-c2cc(-c3nn[nH]c3Cl)ccn2)c1-c1ccc(F)cc1OCC1CC1 [Example 40, 4-(5-chloro-1H-triazol-4-yl)-2-[5-[2-(cyclopropylmethoxy)-4-fluorophenyl]-1-methylimidazol-4-yl]pyridine] |
| 6.00 to 7.00 | ≥ 7.00 | Fc1[nH]nnc1-c1ccnc(-c2cn(CCc3cccc4ccccc34)cn2)c1 [Example 35, 4-(5-fluoro-1H-triazol-4-yl)-2-[1-(2-naphthalen-1-ylethyl)imidazol-4-yl]pyridine] |
| 5.00 to 6.00 | ≥ 7.00 | Cn1cnc(-c2cc(-c3nn[nH]c3C#N)ccn2)c1-c1ccc(F)cc1OCC1CC1 [Example 39, 4-[2-[5-[2-(cyclopropylmethoxy)-4-fluorophenyl]-1-methylimidazol-4-yl]pyridin-4-yl]-1H-triazole-5-carbonitrile] |
| 5.00 to 6.00 | ≥ 7.00 | Cn1cnc(-c2cc(-c3nn[nH]c3F)ccn2)c1-c1ccc(F)cc1OCC1CC1 [Example 41, 2-[5-[2-(cyclopropylmethoxy)-4-fluorophenyl]-1-methylimidazol-4-yl]-4-(5-fluoro-1H-triazol-4-yl)pyridine] |
| 5.00 to 6.00 |  | CC(Cc1ccccc1)n1cnc(-c2cc(-c3c[nH]nn3)ccn2)c1 (stereo not shown) [Example 33, 2-[1-(1-phenylpropan-2-yl)imidazol-4-yl]-4-(1H-triazol-4-yl)pyridine] |
